Source: patent US8614333B2, “Acenaphtho heterocyclic compound and application thereof” (Dalian University of Technology, priority 2010, dated 2013)
Several values for one entry are separate records, joined by “and”; a condition that tells them apart may be missing. Equal entries are not always repeated.

Columns and labels:
[1] = tested on: Bcl-2; assay: Western blotting, semiquantitative analysis of Bcl-2 protein bands; format: cell-based; conditions: tumor cells; for concentration of the protein bands (semiquantitative, normalized), Bcl-2: control = 1
Method: (§1) The interest protein was detected by the corresponding antibody. The expression of the interest protein in the cells was detected by horseradish peroxidase-labeled secondary antibodies in combination with ECL coloration method. […] The concentration of the protein bands in the Western images were carried out semiquantitative analysis and normalization treatment with KODAK Gel Logic 1500 imaging system software.

[2] = tested on: Mcl-1; assay: Western blotting, semiquantitative analysis of Mcl-1 protein bands; format: cell-based; conditions: tumor cells; for concentration of the protein bands (semiquantitative, normalized), Mcl-1: control = 1
Method: as §1

[3] = biological target: Bcl-2 protein (Homo sapiens, UniProt P10415); assay: ELISA assay, competitive binding to Bcl-2 protein (biotin-Bim/streptavidin plate); conditions: method calculates average IC50, read-out: Bcl-2 binding constants
Method: (§2) The present inventors used fluorescence polarization assay to detect the bonding force between the protein and the compounds in a previous study (PCT/CN2010/075521). […] ELISA assay was used to detect the bonding force between the compounds and the protein in this application.
(§3) Biotinylated Bim peptide was diluted to 0.09 μg/mL in SuperBlock blocking buffer in PBS and incubated for 1.5 h in 96-well microtiter plates already coated with streptavidin to allow the formation of the complex between Biotin-Bim and streptavidin. All incubations were performed at room temperature unless otherwise noted. Each inhibitor was first dissolved in pure DMSO to obtain a 10 mM stock solution. For each tested inhibitor, different concentrations of the inhibitor were incubated with 20 nM His-tagged Mcl-1 protein in PBS for 1 h with a final DMSO concentration of 4%. The plates were washed three times with PBS containing 0.05% Tween-20. The inhibitor and protein mixture (100 μL) were transferred to the plate containing the biotin-Bim/streptavidin complex and incubated for 2 h. The plate was then washed as before and mouse anti-His antibody that conjugated with horseradish peroxidase was added into the wells and incubated for 1 h. The plate was then washed with PBS containing 0.05% Tween-20. Finally, TMB was added to each well; the enzymatic reaction was stopped after 30 min by addition of H2SO4 (100 μL, 2M). Absorbances were measured with a TECAN GENios (Swiss, TECAN) microplate reader using a wavelength of 450 nm. Three independent experiments were performed with each inhibitor to calculate average IC50 value and standard deviation (SD).
(§4) The BH3 analogous degrees of other 11 compounds were detected by using the experimental method as described above. The protein binding constant (binding constant in table 1) between them and Bcl-2 and Mcl-1 proteins were also on nM grade.

[4] = biological target: His-tagged Mcl-1 protein (Homo sapiens, UniProt Q07820); assay: ELISA assay, competitive binding to Mcl-1 protein (biotin-Bim/streptavidin plate); conditions: 20 nM His-tagged Mcl-1, method calculates average IC50, read-out: Mcl-1 binding constants
Method: as §2, §3, §4

[5] = tested on: BAX shift towards the chondriosome; assay: Co-localization between Bax protein and chondriosome, Bax-YFP in MCF-7 cells; format: cell-based; conditions: for Doses (concentration at which the compound drove the BAX to shift towards the chondriosome): Bax-YFP/Mito Tracker Red; for Time (time period after which BAX shifted towards the chondriosome): at the concentration given
Method: 5 μg of Bax-YFP plasmid was transfected into MCF-7 cells by using calcium phosphate coprecipitation method, 24 hours later, the cells were inoculated in a 6-well plate (0.2×10^6 cells/well), and 10 μM of the compound 1 to be detected was added thereinto. 6 hours later, the cells were washed with PBS and hatched away from light with 50 nM Mito Tracker Red CMXRos (chondriosome specific probes; red) for 10 minutes. Then the cells were washed with PBS for three times, and the fluorescent image was scanned with Radiance2000 laser confocal microscopy (Bio-Rad, USA). Meanwhile, dual channel scanning was carried out, one channel was used to scan the green fluorescence of Bax-YFP, and the other channel was used to scan the red fluorescence of the CMXRos probe for indicating the chondriosome. […] When the Bax protein was localized on the chondriosome, the green and red fluorescence was superimposed into orange, as shown in FIG. 7.
Other 24 compounds were detected by the same experimental method as described above. […] Wherein the concentration and time meant that the detected compound simulated the BH3-only protein and driven the BAX to shift towards the chondriosome at the concentration for the time period.

[6] = tested on: MCF-7 cells transfected with BAX/BAK interfering plasmid; assay: Cytotoxicity by MTT, cells transfected with BAX/BAK interfering plasmid; format: cell-based; conditions: for IC50: Homo sapiens, MCF7, MCF-7 with BAX/BAK interfering plasmid, MTT, 48 hours
Method: (§5) 3 μg of BAX/BAK interfering plasmid was transfected into MCF-7 cells by using calcium phosphate coprecipitation method, 24 hours later, the cells were collected. The expressions after the BAX and BAK proteins interfered with RNA was detected by Western, and the cell groups without plasmid transfection were treated similarly and were set as the control group. The transfected cells were inoculated in a 96-well plate (1×10^5 cells/well), the control experiment of the cell group without plasmid transfection was carried out in parallel. The compound 1 to be detected was added thereinto according to the concentration gradient designed before the experiment. 48 hours later, the cellular vitality was detected by MTT. The experimental results were shown in FIG. 9, Gossypol as nonspecific BH3 analogue was treated in parallel.
(§6) Other 24 compounds were also detected by the same experimental method as described above, the differences of IC50 values between the transfected cells and the without plasmid transfection cells were compared.

[7] = tested on: MCF-7 cells; assay: Cytotoxicity by MTT, cells without plasmid transfection; format: cell-based; conditions: Homo sapiens, MCF7; MCF-7, MTT, 48 hours; read-out: IC50 value in untransfected cells
Method: as §5, §6

[8] = biological target: T1, interaction between Bcl-2 and Bax (Homo sapiens, UniProt P10415); assay: Intracellular FRET, Bcl-2-CFP/Bax-YFP in Hela cells; format: cell-based; conditions: for Time (time period after which the interaction between Bcl-2 and Bax was interfered): at the concentration given
T1 construct: expressed in transfected cells; host or cells: Hela cells
Method: 2 μg of Bcl-2-CFP and Bax-YFP plasmids were transfected separately or simultaneously into Hela cells by using calcium phosphate coprecipitation method, 24 hours later, the cells were inoculated in a 6-well plate (2×10^5 cells/well), and the compound 1 to be detected dissolved in DMSO was added there into until the final concentration (2, 5, 10 and 15 μM) was achieved. 24 hours later (please refer to FIG. 5); the cells were washed with PBS for three times. The fluorescence value was detected by GENIOS fluorescence enzyme-labelled meter (TECAN, Swiss). In time-dependent experiment, the transfected cells were inoculated in a 6-well plate, after that, 40 μM of the compound was added thereinto. 3, 6 and 24 hours later (FIG. 6), the fluorescence intensities were detected by plate reader. As for the cell group in which only Bcl-2-CFP plasmid was transfected, the values at 475 nm emission wave length and 433 nm excitation wave length were recorded. As for the cell group in which only Bax-YFP plasmid was transfected, the values at 527 nm emission wave length and 505 nm excitation wave length were recorded. As for the cell group in which Bcl-2-CFP and Bax-YFP plasmids were co-transfected, the values at 527 nm and 475 emission wave lengths and 433 nm excitation wave length were recorded. The ratio of fluorescence intensity at 527 nm and 475 nm emission wave lengths was FRET. The FRET for the control group in which the plasmid was solely transfected was set as 1.0. […] In the cotransfected cells, the FRET increased up to 2.0 due to the interaction of Bcl-2 protein and Bax protein, and that the interference to the interaction between the two proteins increased and FRET decreased with the increase of the drug concentration and time. The cellular vitality was detected by MTT method. When the concentration of the compound reached 1 μM, the interaction between Bcl-2 and Bax can be interfered after 2 hours, and the results appeared concentration-time dependent trend.
Wherein the concentration and time meant that the detected compound interfered with the interaction between Bcl-2 and Bax at the concentration for the time period.

Sequence of His-tagged Mcl-1 protein (Q07820 whole entry): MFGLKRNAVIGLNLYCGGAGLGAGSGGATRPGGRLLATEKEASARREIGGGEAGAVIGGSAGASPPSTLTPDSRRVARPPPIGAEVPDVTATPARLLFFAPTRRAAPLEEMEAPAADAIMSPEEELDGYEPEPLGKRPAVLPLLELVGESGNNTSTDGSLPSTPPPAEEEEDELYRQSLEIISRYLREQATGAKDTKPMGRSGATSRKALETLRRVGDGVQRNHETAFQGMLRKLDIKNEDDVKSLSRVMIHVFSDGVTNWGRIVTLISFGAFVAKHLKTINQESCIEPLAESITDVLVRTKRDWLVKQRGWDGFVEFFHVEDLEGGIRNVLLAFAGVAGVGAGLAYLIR
Sequence of Bcl-2 protein (P10415 whole entry, species assumed): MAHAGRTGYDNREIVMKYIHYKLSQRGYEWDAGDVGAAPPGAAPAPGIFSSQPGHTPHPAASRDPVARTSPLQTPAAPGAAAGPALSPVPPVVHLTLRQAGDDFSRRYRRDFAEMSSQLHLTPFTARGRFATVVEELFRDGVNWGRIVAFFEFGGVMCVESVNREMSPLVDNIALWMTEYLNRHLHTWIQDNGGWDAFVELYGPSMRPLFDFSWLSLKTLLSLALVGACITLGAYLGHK
T1 sequence (P10415 whole entry): as the sequence (P10415 whole entry, species assumed) above

## CCCCNC1=C2C(=NC1=O)c1cccc3c(N4CCSCC4)ccc2c13 [Compound 9, 9-Butylamino-3-thiomorpholin-4-yl-acenaphtho[1,2-b]pyrrol-8-one]
[1]; 6 h
  concentration of the protein bands (semiquantitative, normalized), Bcl-2: 0.99
[1]; 12 h
  concentration of the protein bands (semiquantitative, normalized), Bcl-2: 0.99
[1]; 18 h
  concentration of the protein bands (semiquantitative, normalized), Bcl-2: 0.49
[1]; 24 h
  concentration of the protein bands (semiquantitative, normalized), Bcl-2: 0.20
[2]; 2 h
  concentration of the protein bands (semiquantitative, normalized), Mcl-1: 0.60
[2]; 6 h
  concentration of the protein bands (semiquantitative, normalized), Mcl-1: 0.29
[3]
  IC50: 63 nM
[4]
  IC50: 16 nM
[5]
  Doses (concentration at which the compound drove the BAX to shift towards the chondriosome): 0.6 µM
  Time (time period after which BAX shifted towards the chondriosome): 3 h
other
  melting point: 239 to 240 °C
[6]
  IC50: > 50000 nM
[7]
  IC50: 1300 nM
[8]
  Doses (concentration at which the compound interfered with the interaction between Bcl-2 and Bax): 0.4 µM
  Time (time period after which the interaction between Bcl-2 and Bax was interfered): 2 h

## CCCCCCNC1=C2C(=NC1=O)c1cccc3cccc2c13 [Compound 2, 9-n-Hexylamino-acenaphtho[1,2-b]pyrrol-8-one]
[1]; 6 h
  concentration of the protein bands (semiquantitative, normalized), Bcl-2: 0.99
[1]; 12 h
  concentration of the protein bands (semiquantitative, normalized), Bcl-2: 0.99
[1]; 18 h
  concentration of the protein bands (semiquantitative, normalized), Bcl-2: 0.50
[1]; 24 h
  concentration of the protein bands (semiquantitative, normalized), Bcl-2: 0.19
[2]; 2 h
  concentration of the protein bands (semiquantitative, normalized), Mcl-1: 0.70
[2]; 6 h
  concentration of the protein bands (semiquantitative, normalized), Mcl-1: 0.31
[3]
  IC50: 28 nM
[4]
  IC50: 25 nM
[5]
  Doses (concentration at which the compound drove the BAX to shift towards the chondriosome): 0.5 µM
  Time (time period after which BAX shifted towards the chondriosome): 3 h
other
  melting point: 234 to 235 °C
[6]
  IC50: > 50000 nM
[7]
  IC50: 3500 nM
[8]
  Doses (concentration at which the compound interfered with the interaction between Bcl-2 and Bax): 0.4 µM
  Time (time period after which the interaction between Bcl-2 and Bax was interfered): 3 h

## CCOc1ccc2c3c(cccc13)C1=NC(=O)C(NCCCc3ccccc3)=C12 [Compound 4, 3-Ethoxy-9-(3-phenyl-propylamino)-acenaphtho[1,2-b]pyrrol-8-one]
[3]
  IC50: 35 nM
[4]
  IC50: 95 nM
[5]
  Doses (concentration at which the compound drove the BAX to shift towards the chondriosome): 3.0 µM
  Time (time period after which BAX shifted towards the chondriosome): 4 h
other
  melting point: 250 to 251 °C
[6]
  IC50: > 50000 nM
[7]
  IC50: 5600 nM
[8]
  Doses (concentration at which the compound interfered with the interaction between Bcl-2 and Bax): 1.0 µM
  Time (time period after which the interaction between Bcl-2 and Bax was interfered): 5 h

## CCCCNC1=C2C(=NC1=O)c1cccc3c(C(=O)c4ccccc4)ccc2c13 [Compound 5, 3-Benzoyl-9-butylamino-acenaphtho[1,2-b]pyrrol-8-one]
[3]
  IC50: 65 nM
[4]
  IC50: 125 nM
[5]
  Doses (concentration at which the compound drove the BAX to shift towards the chondriosome): 5.0 µM
  Time (time period after which BAX shifted towards the chondriosome): 5 h
other
  melting point: 262 to 263 °C
[6]
  IC50: > 50000 nM
[7]
  IC50: 6500 nM
[8]
  Doses (concentration at which the compound interfered with the interaction between Bcl-2 and Bax): 2.0 µM
  Time (time period after which the interaction between Bcl-2 and Bax was interfered): 6 h

## CCCCNC1=C2C(=NC1=O)c1cccc3cccc2c13 [Compound 1, 9-n-Butylamino-8H-acenaphtho[1,2-b]pyrrol-8-one]
[1]; 6 h
  concentration of the protein bands (semiquantitative, normalized), Bcl-2: 0.99
[1]; 12 h
  concentration of the protein bands (semiquantitative, normalized), Bcl-2: 0.99
[1]; 18 h
  concentration of the protein bands (semiquantitative, normalized), Bcl-2: 0.58
[1]; 24 h
  concentration of the protein bands (semiquantitative, normalized), Bcl-2: 0.21
[1]; Western blotting
  inhibition against Bcl-2 (in words): had the inhibition against these two proteins
[2]; 2 h
  concentration of the protein bands (semiquantitative, normalized), Mcl-1: 0.79
[2]; 6 h
  concentration of the protein bands (semiquantitative, normalized), Mcl-1: 0.35
[2]; Western blotting
  inhibition against Mcl-1 (in words): had the inhibition against these two proteins
[3]
  IC50: 142 nM
[4]
  IC50: 49 nM
[5]
  Doses (concentration at which the compound drove the BAX to shift towards the chondriosome): 1.0 µM
  Time (time period after which BAX shifted towards the chondriosome): 3 h
[6]
  IC50: > 50000 nM
[6]; comparison of transfected and untransfected MCF-7 cells
  dependence of cytotoxicity on BAX/BAK: absolute dependence on BAX/BAK
[7]
  IC50: 4000 nM
[8]
  Doses (concentration at which the compound interfered with the interaction between Bcl-2 and Bax): 1 µM and 1.0 µM
  Time (time period after which the interaction between Bcl-2 and Bax was interfered): 2 h

## CCCCN(C)C1=C2C(=NC1=O)c1cccc3cccc2c13 [Compound 6, 9-(Butyl-methyl-amino)-acenaphtho[1,2-b]pyrrol-8-one]
[3]
  IC50: 45 nM
[4]
  IC50: 66 nM
[5]
  Doses (concentration at which the compound drove the BAX to shift towards the chondriosome): 4.0 µM
  Time (time period after which BAX shifted towards the chondriosome): 4 h
other
  melting point: 245 to 246 °C
[6]
  IC50: > 50000 nM
[7]
  IC50: 4000 nM
[8]
  Doses (concentration at which the compound interfered with the interaction between Bcl-2 and Bax): 2.0 µM
  Time (time period after which the interaction between Bcl-2 and Bax was interfered): 5 h
